The record followed here is patent EP0023761B1, “Tetrahydroisoquinoline derivatives, process for preparing them and compositions containing them” (priority 1979, dated 1981).

The structures appear in SMILES notation. Where a name gives a salt, the structure may show the parent alone.

In assay [1] the target is T1, phenylethanolamine N-methyltransferase (Oryctolagus cuniculus, UniProt G1TT82).
T1 sequence (G1TT82 1-286): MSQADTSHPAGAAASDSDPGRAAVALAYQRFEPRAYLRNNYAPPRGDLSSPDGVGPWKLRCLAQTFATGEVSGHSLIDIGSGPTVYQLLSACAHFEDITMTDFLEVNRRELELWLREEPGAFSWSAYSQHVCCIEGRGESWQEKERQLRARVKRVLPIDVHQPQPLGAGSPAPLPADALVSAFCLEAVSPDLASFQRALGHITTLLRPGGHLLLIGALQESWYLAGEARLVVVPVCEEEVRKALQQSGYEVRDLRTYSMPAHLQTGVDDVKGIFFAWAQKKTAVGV
As to the kind of experiment: inhibition of phenylethanolamine N-methyltransferase in vitro (assay procedure of Pendleton and Snow). The assay is classed as biochemical. To be noted: read-out: inhibit phenylethanolamine N-methyltransferase; for inhibition at 100 µM: concentration 1.0 x 10-^4 (unit inferred); for inhibition at 1 µM: concentration 1.0 x 10-^6 (unit inferred).

A further assay relates to PNMT. As to the kind of experiment: in vivo PNMT inhibition in mice: adrenal epinephrine/norepinephrine ratio, measured fluorometrically. To be noted: male mice, oral, 50 mg/kg per day, twice a day for seven days, dosed again next morning, sacrificed two hours later; vehicle control 2.5 + 0.23; p <.01. As to the method: Male mice were dosed orally with either drug or vehicle control on a twice-a-day basis for seven consecutive days. On the morning of the next day they were again dosed and two hours later sacrificed by decapitation. The adrenal glands were then removed and analyzed fluorometrically for both epinephrine and norepinephrine content.

For the molecule `c1cc2nnsc2c2c1CCNC2` [[1,2,3]thiadiazolo[4,5-h]-6,7,8,9-tetrahydroisoquinoline hydrochloride], in assay [1], the inhibition at 100 µM came to 99% and the inhibition at 1 µM came out at 91%.

As for `c1cc2snnc2c2c1CCNC2` [[1,2,3]thiadiazolo[5,4-h]-6,7,8,9-tetrahydroisoquinoline hydrochloride], the adrenal epinephrine/norepinephrine ratio in the assay on PNMT came out at 1.3 ± 0.08. In assay [1], the inhibition at 100 µM came out at 99% and the inhibition at 1 µM worked out at 94%.
